{"source": "paper PMC10442743", "about": "(Dalton Transactions (Cambridge, England : 2003), 2023)", "key": {"MDA-MB-231": {"tested_on": "MDA-MB-231", "assay": "MTT cytotoxicity assay, MDA-MB-231 cells", "assay_type": "cell-based, human", "settings": "MTT", "experimental": "(§1) The cytotoxicity of 1–11CA was assessed against human breast cancer MCF-7 and MDA-MB-231 cells, and non-tumorigenic adherent mouse fibroblast connective tissue L929 cells using the MTT assay after 24 and 72 h (Tables S5 ^† and Table 1, respectively).\n(§2) Then, necessary dilutions were made using the supplement DMEM, to prepare the range of tested concentrations. Since DMSO was used to solubilize the compounds, a supplemented DMEM + DMSO (at the same percentage as in the sequential dilutions) was considered as a control in the 3-[4,5-dimetylthiazole-2-yl]-2,5-diphenyltetrazolium bromide (MTT) assay.\n(§3) L929, MCF-7, and MDA-MB-231 cell lines were cultured in DMEM supplemented with 10% (v/v) FBS and 1% (v/v) of penicillin–streptomycin. The cells were incubated in a humidified chamber at 37 °C under saturated air with a 5% CO2 atmosphere. Cells were passed at 80%–90% of confluency with 0.25% (w/v) trypsin and the cell culture media was changed every 2–3 days.\n(§4) The compounds were tested on two breast cancer cell lines (MCF-7 and MDA-MB-231) and L929 fibroblasts, used as a reference for the safety evaluation according to ISO 10993-1:2009 “Biological evaluation of medical devices”. Cells were seeded on sterile 96-well plates at 50 000 cells per well (L929) and 20 000 cells per well (MCF-7 and MDA-MB-231) in supplemented DMEM medium (100 μL) for 24 h. The culture medium was removed and new media containing different concentrations of the compounds (0–1000 μM) was added to the wells (100 μL). Control cells were incubated under the same conditions in the absence of a compound. Cells were incubated for 24 and 72 h under the same conditions described above. Then, the medium was removed, and the cells were incubated with 3-(4,5-dimethylthiazol-2-yl)-2,5-diphenyltetrazolium bromide (MTT; 0.5 mg mL^−1) for 3 h. After this time, the medium was removed, and formazan crystals were solubilized with DMSO (100 μL per well). The absorbance in each well was read on a SynergyTM HT Multimode microplate reader (BioTek Instruments; Winooski, VT, USA) at 570 and 630 nm (for background correction), and the cell viability was calculated according to the following equation (eqn (1)):1 [drawing 3] where OD570(sample) and OD630(sample) are the optical densities of the solutions containing the compounds and OD570(control) and OD630(control) are controls without compound.\n(§5) Each apoptosis value determination represents the mean ± standard deviation of 2 independent assays. The IC50 values were obtained using GraphPad Prism software and ANOVA (analysis of variance) was performed to determine the statistical difference between the IC50 values of different cell lines."}, "L929": {"tested_on": "L929", "assay": "MTT cytotoxicity assay, L929 fibroblasts (and selectivity index)", "assay_type": "cell-based, mouse", "settings": "for SI (selectivity index): IC50 L929 divided by average IC50 of the breast cancer cell lines; for IC50: MTT", "experimental": "as §1, §2, §3, §4, §5"}, "[1]": {"assay": "Molar conductivity in acetonitrile", "assay_type": "physicochemical", "settings": "1 mM in acetonitrile, 25 °C", "experimental": "The molar conductivity (ΛM, reported as S·cm2·mol–1) of solutions of 11CA in acetonitrile (1 mM) were measured in a Radiometer Copenhagen CDM92 equipped with a conductivity cell CDC641T glass platinum electrode at room temperature (25 °C). The conductivity of the pure solvent was used as standard controls.\nTable S3. Solubility in water at 25 °C, n-octanol/water partition coefficient and molar conductivity of the 11CA. * below limit of detection = 5 ppt."}, "pBR322 DNA": {"tested_on": "pBR322 DNA", "experimental": "The interaction of 11Cl with plasmid DNA was also assessed by visualizing the relaxation of the plasmid using agarose gel electrophoresis (Fig. 4). Different concentrations of the 11Cl were incubated with pBR322 DNA at 37 °C for 24 h and then analyzed by gel electrophoresis (Fig. 4).\nAssays were performed using 1.2% (w/v) agarose gels. A plasmid pBR322 DNA was purchased from Thermofisher Scientific® at 0.5 μg μL^−1 concentration in phosphate buffer 50 mM (pH 7.4). A 20 μL portion containing 0.125 μg μL^−1 of DNA in 10 mM Tris-HCl (pH 7.6) and 1 mM EDTA was incubated with increasing volumes of the stock solution of 11Cl (1 mM in DMSO) at ri values ranging from 0.05 to 0.5 (ri = [complex]/[no. nucleotide]). […] 20 μL of the sample was loaded in the agarose gel (1.2% w/v), and electrophoresis was carried out for a period of 100 min at 40 V in TAE 1× (Tris-acetate/EDTA) buffer. After electrophoresis, the gel was immersed in 200 mL of TAE 1× buffer containing 20 μL of a stock solution of SYBR safe for 30 min to stain the DNA. Then, the gel was washed with Mili Q water for 10 min and the stained gel was analyzed with a blue light in a Safe Imager™ 2.0 (Invitrogen)."}, "[2]": {"tested_on": "14-mer ssDNA 5′–3′ (ATACATGGTACATA)", "settings": "3 : 1 ratio, 37 °C, 24 h", "experimental": "(§6) Tandem mass spectrometry was used to investigate the binding mode interaction of 11Cl with single- (ss) and double-strand (ds) DNA oligomers.[77,78]\n(§7) 11Cl was incubated with 14-mer ssDNA 5′–3′ ([…]) and 6-mer dsDNA 5′–3′ (AGGCAG) in a 3 : 1 ratio at 37 °C in MilliQ water. After 24 h the solution was centrifuged with an Amicon® Ultra 0.5 mL centrifugal filter 3 kDa MWCO to remove the unreacted metal complex and excess salts."}, "[3]": {"tested_on": "6-mer dsDNA 5′–3′ (AGGCAG)", "settings": "3 : 1 ratio, 37 °C, 24 h", "experimental": "as §6, §7"}, "[4]": {"molecular_target": "bovine serum albumin (BSA) (Bos taurus, UniProt P02769)", "sequence (P02769 25-607)": "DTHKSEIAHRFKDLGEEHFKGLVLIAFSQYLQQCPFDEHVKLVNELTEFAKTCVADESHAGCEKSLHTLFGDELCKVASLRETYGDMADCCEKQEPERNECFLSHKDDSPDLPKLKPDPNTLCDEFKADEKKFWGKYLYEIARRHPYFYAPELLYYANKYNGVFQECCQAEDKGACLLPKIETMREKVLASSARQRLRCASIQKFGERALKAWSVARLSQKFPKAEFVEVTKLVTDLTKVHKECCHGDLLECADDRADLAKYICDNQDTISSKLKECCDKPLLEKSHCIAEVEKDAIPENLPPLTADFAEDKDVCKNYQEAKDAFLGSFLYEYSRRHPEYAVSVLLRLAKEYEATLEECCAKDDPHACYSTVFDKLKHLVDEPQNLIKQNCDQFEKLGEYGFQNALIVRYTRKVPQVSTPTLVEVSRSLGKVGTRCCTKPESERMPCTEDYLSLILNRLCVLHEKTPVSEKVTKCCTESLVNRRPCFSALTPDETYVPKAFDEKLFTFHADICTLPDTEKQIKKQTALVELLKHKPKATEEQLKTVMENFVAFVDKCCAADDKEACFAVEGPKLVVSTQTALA", "assay": "BSA binding assay (tryptophan fluorescence quenching)", "description": "BSA (16 μM) in 10 mM Tris-HCl pH 7.6 + 1 mM EDTA solution and varying concentrations of 11Cl (0–32 μM) were incubated at 37 °C for 24 h. Afterward, the fluorescence spectra were measured for each solution between 300 and 500 nm (λex = 280 nm). The intensity at λmax (340 nm) was recorded."}, "ct-DNA": {"tested_on": "ct-DNA", "assay": "Competitive DNA binding assay with fluorescent probes (DAPI, MG, PI)", "description": "From the obtained fluorescence data, apparent DNA binding constants, Kapp, were calculated according to the competitive binding model described by Tse and Boger.[66]\nEmission intensity measurements were performed using a SpectraMax M5e reader at room temperature. A 50 μM (bp) of ct-DNA was pre-incubated with the groove binding agents (MG and DAPI) (2 μM) and the intercalating agent propidium iodide (2 μM) for 30 min at 37 °C, to allow full interaction of the dyes into the ctDNA. Increasing amounts of 11Cl (0–100 μM) were added to this mixture and the final samples were incubated for 24 h at 37 °C. After incubation, the emission spectra were recorded at excitations of 633, 358, and 535 nm for the measurements of MG, DAPI, and PI, respectively. Quenching parameters were obtained by applying the Stern–Volmer equation (eqn (2)). The apparent binding constants, Kapp, were calculated according to the competitive binding model described by Tse and Boger[66] using eqn (4):[90]4 Kprobe[probe] = Kappc50where Kprobe is the binding constant of the probe, 9 × 10^5 and 5 × 10^6 M^−1 for MG[91] and DAPI,[92] respectively; [probe] is the concentration of probe used, 10 μM for both MG and DAPI; and c50 is the complex concentration when the fluorescence intensity of the probe is 50%. This value is obtained from the plot F0/F vs. [Q] when F0/F = 2."}, "[5]": {"settings": "complex concentration at 50% probe fluorescence, Table S9"}, "[6]": {"settings": "ctDNA, DAPI competitive binding, Table S9"}, "[7]": {"settings": "ctDNA, MG competitive binding, Table S9"}}, "note": "Read-outs that look alike come from different tables or passages of the source."}
{"smiles": "Cc1ccccc1.[Cl-].[Cl][Ru+]([PH](c1ccccc1)(c1ccccc1)c1ccccc1)[PH](c1ccccc1)(c1ccccc1)c1ccccc1", "note": "[Compound 11Cl, [Ru(η^6-toluene)(PPh3)2Cl]Cl]", "values": [{"measurement": "IC50", "setting": "MDA-MB-231; 24 h exposure, read-out: IC50 (µM) (average ± standard deviation) 24 h MDA-MB-231", "value": "5.5 ± 0.6", "unit": "µM"}, {"measurement": "IC50", "setting": "MDA-MB-231; 72 h exposure, read-out: IC50 (μM) (average ± standard deviation) 72 h MDA-MB-231", "value": "0.086 ± 0.006", "unit": "µM"}, {"measurement": "selectivity for the breast cancer cell lines compared to the healthy ones", "setting": "L929", "value": "~10", "unit": "fold"}, {"measurement": "SI (selectivity index)", "setting": "L929; 24 h", "value": 1.1}, {"measurement": "IC50", "setting": "L929; 24 h exposure, read-out: IC50 (µM) (average ± standard deviation) 24 h L929", "value": "5.3 ± 0.7", "unit": "µM"}, {"measurement": "SI (selectivity index)", "setting": "L929; 72 h", "value": 11.8}, {"measurement": "IC50", "setting": "L929; 72 h exposure, read-out: IC50 (μM) (average ± standard deviation) 72 h L929", "value": "0.87 ± 0.05", "unit": "µM"}, {"measurement": "Conductivity (molar conductivity)", "setting": "[1]", "value": 128, "unit": "S·cm2/mol"}, {"measurement": "stabilization of the linear form of plasmid DNA", "setting": "pBR322 DNA; 37 °C, 24 h, ri 0.01–0.5", "value": "did not induce the stabilization of the linear form"}, {"measurement": "precipitation of DNA", "setting": "pBR322 DNA; all studied concentrations", "value": "no precipitation was observed"}, {"measurement": "ri ratio from which alterations in the supercoiled structure (tailing, slight retardation) appear", "setting": "pBR322 DNA; ri = [11Cl]/[DNA bp], 37 °C, 24 h", "value": "≥ 0.2"}, {"measurement": "identified ssDNA ions containing ruthenium", "setting": "[2]", "value": 43, "unit": "%"}, {"measurement": "identified dsDNA ions containing ruthenium", "setting": "[3]", "value": 23, "unit": "%"}, {"measurement": "bimolecular quenching rate kq (BSA)", "setting": "[4]; BSA 16 μM, 37 °C, 24 h", "value": "1.9e+12", "unit": "M⁻¹ s⁻¹"}, {"measurement": "binding constant to BSA", "setting": "[4]; BSA 16 μM, 37 °C, 24 h", "value": 560000, "unit": "M⁻¹"}, {"measurement": "KSV (BSA)", "setting": "[4]; Table S8", "value": "1.13 ± 0.08 104 M−1"}, {"measurement": "kq (BSA)", "setting": "[4]; Table S8", "value": "1.88 ± 0.14 1012 M−1"}, {"measurement": "n (number of binding sites, BSA)", "setting": "[4]; Table S8", "value": 1.4}, {"measurement": "n (number of binding sites in BSA)", "setting": "[4]; estimated value", "value": "~1"}, {"measurement": "C50, DAPI probe", "setting": "ct-DNA; [5]", "value": "1.1 10−4 M"}, {"measurement": "C50, MG probe", "setting": "ct-DNA; [5]", "value": "2.1 10−4 M"}, {"measurement": "KSV, DAPI probe", "setting": "ct-DNA; [6]", "value": "8.8 ± 0.6 103 M−1"}, {"measurement": "Kapp, DAPI probe", "setting": "ct-DNA; [6]", "value": "4.4 ± 0.3 105 M−1"}, {"measurement": "kq, DAPI probe", "setting": "ct-DNA; [6]", "value": "3.3 ± 0.3 1012 M−1"}, {"measurement": "KSV, MG probe", "setting": "ct-DNA; [7]", "value": "4.8 ± 0.7 103 M−1"}, {"measurement": "Kapp, MG probe", "setting": "ct-DNA; [7]", "value": "0.43 ± 0.04 105 M−1"}, {"measurement": "kq, MG probe", "setting": "ct-DNA; [7]", "value": "0.48 ± 0.07 1012 M−1"}, {"measurement": "quenching of PI (intercalator probe) fluorescence", "setting": "ct-DNA; ctDNA, probe PI", "value": "no linear quenching was observed"}, {"measurement": "preference towards the minor groove", "setting": "ct-DNA; from difference of Kapp values", "value": 10, "unit": "fold"}]}
